Experimental data taken from publication PMC6009892, “A novel series of pyrazole-platinum(II) complexes as potential anti-cancer agents that induce cell cycle arrest and apoptosis in breast cancer cells” (Journal of Enzyme Inhibition and Medicinal Chemistry, 2018).

Experiments:
[1] = test system: caspase-3 in MDA-MB-231 breast cancer cells; experiment: FLICA caspase-3 activity, flow cytometry, MDA-MB-231; type: cell-based, human; conditions: MDA-MB-231, 20 μM, 24 h
Protocol: Caspase-3 activity was measured using the FLICA Caspase 3 Assay Kit (ImmunoChemistry Technologies, Bloomington, MN, USA), according to the manufacturer’s instructions. Briefly, cultured MDA-MB-231 breast cancer cells (1 × 10^6) were washed with cold PBS twice and re-suspended in buffer. We added 5 µl of diluted FLICA reagent and 2 µl of Hoechst 33342 to 93 µl of cell suspension and mixed by pipetting. The cells were incubated for 60 min at 37°C. After incubation, the cells were washed twice in 400 µl of apoptosis wash buffer and centrifuged at 300 × g. After the last wash, we re-suspended the cells in 100 µl of apoptosis wash buffer supplemented with 10 µg/ml PI. Analysis was performed using the BD FACSCanto II flow cytometer, and the results were analysed with FACSDiva software (both from BD Biosciences Systems, San Jose, CA).

[2] = test system: MCF-7 breast cancer cells; experiment: Mitochondrial membrane potential JC-1, MCF-7; type: cell-based, human; conditions: MCF-7, 20 μM, 24 h; untreated 7.4%
Protocol: (§1) Disruption of the MMP was assessed using the lipophilic cationic probe 5,5′,6,6′-tetrachloro-1,1′,3,3′-tetraethylbenzimidazolcarbocyanine iodide (JC-1 MitoScreen kit; BD Biosciences Systems, San Jose, CA), as described previously. Briefly, unfixed cells were washed and re-suspended in PBS supplemented with 10 µg/ml of JC-1. Cells were then incubated for 15 min at room temperature in the dark, washed, and re-suspended in PBS for immediate BD FACSCanto II flow cytometry analysis. The percentage of cells with disrupted MMP was calculated using FACSDiva software (both from BD Biosciences Systems, San Jose, CA).

[3] = test system: human G1/S-specific cyclin D1 in MCF-7 cells; experiment: Cyclin D1 ELISA in cell lysates, MCF-7; type: cell-based; conditions: MCF-7, 20 μM, 24 h; untreated cells 2.6 ng/ml
Protocol: (§2) Cell lysates: Briefly, trypsinised cells were washed three times with cold PBS and centrifuged at 1000 g for 5 min at 4 °C. The cells (1 × 10^6) were suspended in lysis buffer for whole cell lysates. After centrifugation, the supernatants were frozen immediately at −70 °C. The concentration of human G1/S-specific cyclin D1 was measured. Cells without addition of compounds were treated as controls.
(§3) Determination of human G1/S-specific cyclin D1: The high sensitivity assay kit (EIAab) was used to determine the concentration of human G1/S-specific cyclin D1 in cell lysates. The microtiter plate provided in this kit has been pre-coated with an antibody specific to cyclin D1. Standards and samples were added to the appropriate microtiter plate wells. After 2 h of incubation at 37 °C, the plate was incubated with biotin-conjugated antibody for 1 h at 37 °C. Then microplate wells were aspirated and washed three times and then incubated with avidin conjugated to horseradish peroxidase (HRP). Then, a TMB substrate solution was added to each well. […] The enzyme–substrate reaction was terminated by the addition of a sulfuric acid solution and the color change was measured spectrophotometrically at a wavelength of 450 nm ± 2 nm. The concentration of cyclin D1 in the samples was determined by comparing the O.D. of the samples to the standard curve.

[4] = test system: MCF-7 breast cancer cells; experiment: Cell cycle analysis by flow cytometry (PI), MCF-7; type: cell-based, human; conditions: breast cancer cells (MCF-7), 20 μM, 24 h, versus control
Protocol: Distribution of cell cycle phases was analysed by flow cytometry. Briefly, MCF-7 and MDA-MB-231 cells were seeded into six-well plates at a density of 2.5 × 10^5 cells per well and treated with 20 μM of PtPz1–PtPz6 for 24 h. After incubation, the cells were harvested and then fixed with 1 ml of 70% ethanol and kept overnight at −20 °C. Before analysis, the cells were re-suspended in PBS, treated with 50 μg/ml of DNase-free RNase A Solution (Promega), and stained with 100 μg/ml of PI. The FACSCanto II flow cytometer (BD Biosciences Systems, San Jose, CA) was used to read the fluorescence.

[5] = test system: MDA-MB-231 breast cancer cells; experiment: Mitochondrial membrane potential JC-1, MDA-MB-231; type: cell-based, human; conditions: MDA-MB-231, 20 μM, 24 h; untreated 5.8%
Protocol: as §1

[6] = test system: human G1/S-specific cyclin D1 in MDA-MB-231 cells; experiment: Cyclin D1 ELISA in cell lysates, MDA-MB-231; type: cell-based; conditions: MDA-MB-231, 20 μM, 24 h
Protocol: as §2, §3

[7] = test system: MCF-7 breast cancer cells; experiment: Annexin V-FITC/PI flow cytometry, MCF-7; type: cell-based, human; conditions: MCF-7, 20 μM, 24 h; for percent of cells with early and late apoptosis: control 8.5%
Protocol: (§4) To characterise the mode of cell death induced by PtPz1–PtPz6, a flow cytometry analysis was performed using Apoptosis Detection Kit II (BD Pharmingen, San Diego, CA), according to the manufacturer’s instructions. Cells (10000 cells measured) were analysed in a flow cytometer (BD FACSCanto II flow cytometer, San Jose, CA). Annexin V bound with high affinity to phosphatidylserine and thus could be used to identify cells in all stages of the programmed cell death. Propidium iodide (PI) stained cells with a disrupted cell membrane, and it could be used to identify late apoptotic and dead cells. Cells cultured in a drug-free medium were used as controls. […] Results were analysed with FACSDiva software (BD Biosciences Systems, San Jose, CA).

[8] = test system: MDA-MB-231 breast cancer cells; experiment: Annexin V-FITC/PI flow cytometry, MDA-MB-231; type: cell-based, human; conditions: MDA-MB-231, 20 μM, 24 h; for percent of cells with early and late apoptosis: control 7.1%
Protocol: as §4

Row | Compound | increase in caspase-3 activity compared with untreated cells [1] | percent of cells with active caspase-3 [1] [%] | percent of cells with decrease ΔΨm [2] [%] | accumulation of cells in G2/M phase [4] [fold] | percent of cells with early and late apoptosis [7] [%] | percent of cells with early and late apoptosis [8] [%] | other results
1 | Cc1cc(C)[n+]([Pt-2]2([n+]3c(C)cc(C)n3CO)[N](c3ccc(C(=N)N)cc3)N=[N+](c3ccc(C(=N)N)cc3)[Pt-2]([n+]3c(C)cc(C)n3CO)([n+]3c(C)cc(C)n3CO)[N](c3ccc(C(=N)N)cc3)N=[N+]2c2ccc(C(=N)N)cc2)n1CO.Cl.Cl.Cl.Cl.O.O [PtPz1, [Pt2(N-hydroxymethyl-3,5-dimethylpyrazole)4(berenil)2]·4HCl·2H2O] | nine-fold increase | 30.6 | 91.7 | 2.0 | – | – | concentration of cyclin D1 [3]: 0.8 ng/mL; percent of cells with decrease ΔΨm [5]: 90.7%
2 | Cc1cc(C)[n+]([Pt-2]2([n+]3[nH]c(C)cc3C)[N](c3ccc(C(=N)N)cc3)N=[N+](c3ccc(C(=N)N)cc3)[Pt-2]([n+]3[nH]c(C)cc3C)([n+]3[nH]c(C)cc3C)[N](c3ccc(C(=N)N)cc3)N=[N+]2c2ccc(C(=N)N)cc2)[nH]1.Cl.Cl.Cl.Cl.O.O [PtPz2, [Pt2(3,5-dimethylpyrazole)4(berenil)2]·4HCl·2H2O] | nine-fold increase | 28.9 | 90.0 | 2.0 | – | – | –
3 | Cc1c[nH][n+]([Pt-2]2([n+]3[nH]cc(C)c3C)[N](c3ccc(C(=N)N)cc3)N=[N+](c3ccc(C(=N)N)cc3)[Pt-2]([n+]3[nH]cc(C)c3C)([n+]3[nH]cc(C)c3C)[N](c3ccc(C(=N)N)cc3)N=[N+]2c2ccc(C(=N)N)cc2)c1C.Cl.Cl.Cl.Cl.O.O [PtPz3, [Pt2(3,4-dimethylpyrazole)4(berenil)2]·4HCl·2H2O] | – | 22.9 | 86.2 | 2.0 | – | – | –
4 | Cc1ccn[nH]1.Cc1ccn[nH]1.Cc1ccn[nH]1.Cc1ccn[nH]1.Cl.Cl.Cl.Cl.N=C(N)c1ccc(N=N[N]([Pt])c2ccc(C(=N)N)cc2)cc1.N=C(N)c1ccc(N=N[N]([Pt])c2ccc(C(=N)N)cc2)cc1.O.O [PtPz5, [Pt2(5-methylpyrazole)4(berenil)2]·4HCl·2H2O] | – | 21.0 | – | – | – | – | concentration of cyclin D1 [6]: 0.7 ng/mL
5 | CCn1ccc[n+]1[Pt-2]1([n+]2cccn2CC)[N](c2ccc(C(=N)N)cc2)N=[N+](c2ccc(C(=N)N)cc2)[Pt-2]([n+]2cccn2CC)([n+]2cccn2CC)[N](c2ccc(C(=N)N)cc2)N=[N+]1c1ccc(C(=N)N)cc1.Cl.Cl.Cl.Cl.O.O [PtPz6, [Pt2(N-ethylpyrazole)4(berenil)2]·4HCl·2H2O] | – | 11.0 | – | – | 17.2 | 18.6 | viable cells ([7]; control 89.7%): 80.9%; viable cells ([8]; control 91.6%): 79.4%
6 | N.N.[Cl][Pt][Cl] [cisplatin, reference compound] | – | 6.4 | – | – | 10.4 | 10.1 | –
